{"source": "patent US10226534B2", "about": "“Semi-solid delivery systems” (REGENTS OF THE UNIVERSITY OF MINNESOTA, priority 2013, dated 2019)", "assay": "Solubilization of Nile Red in water aided by the semi-solid polymer", "type": "physicochemical", "procedure": "Nile Red (NR) is a hydrophobic molecule that is insoluble in water. 3 mg of NR solid particles suspended in 1 mL of aqueous phosphate buffered saline (PBS) without dissolving. With addition of 10% semi-solid polymer (100 mg), NR is completely solubilized in PBS to 3 mg/mL.", "data": [{"compound": "CCN(CC)c1ccc2nc3c4ccccc4c(=O)cc-3oc2c1", "note": "[Nile Red]", "values": [{"measurement": "solubility", "setting": "PBS with 10% semi-solid polymer, aqueous with cosolvent or surfactant or cyclodextrin, thermodynamic from solid, with addition of 10% semi-solid polymer (100 mg in 1 mL PBS)", "value": 3000, "unit": "µg/mL"}, {"measurement": "Solubility in water", "setting": "without polymer", "value": "insoluble"}]}]}
